# Experimental data as given in ChEMBL document CHEMBL3352567, “Radiosynthesis and ex vivo evaluation of [(18)F]-(S)-3-(6-(3-fluoropropoxy)benzo[d]isoxazol-3-yl)-5-(methoxymethyl)oxazolidin-2-one for imaging MAO-B with PET” (Bioorg Med Chem Lett, 2015).
# Assays:
# [1] = n-Octanol-phosphate buffered saline distribution coefficient, log D of the compound at pH 7.4 by shake flask method; type: physicochemical
# Homo sapiens = species on record: Homo sapiens; assay: Selectivity index, ratio of IC50 for human recombinant MAO-B to IC50 for human recombinant MAO-A
# [2] = target: T1, Amine oxidase [flavin-containing] B (Homo sapiens, UniProt P27338); assay: Inhibition of human recombinant MAO-B by luminescence analysis
# T1 sequence (P27338 whole entry): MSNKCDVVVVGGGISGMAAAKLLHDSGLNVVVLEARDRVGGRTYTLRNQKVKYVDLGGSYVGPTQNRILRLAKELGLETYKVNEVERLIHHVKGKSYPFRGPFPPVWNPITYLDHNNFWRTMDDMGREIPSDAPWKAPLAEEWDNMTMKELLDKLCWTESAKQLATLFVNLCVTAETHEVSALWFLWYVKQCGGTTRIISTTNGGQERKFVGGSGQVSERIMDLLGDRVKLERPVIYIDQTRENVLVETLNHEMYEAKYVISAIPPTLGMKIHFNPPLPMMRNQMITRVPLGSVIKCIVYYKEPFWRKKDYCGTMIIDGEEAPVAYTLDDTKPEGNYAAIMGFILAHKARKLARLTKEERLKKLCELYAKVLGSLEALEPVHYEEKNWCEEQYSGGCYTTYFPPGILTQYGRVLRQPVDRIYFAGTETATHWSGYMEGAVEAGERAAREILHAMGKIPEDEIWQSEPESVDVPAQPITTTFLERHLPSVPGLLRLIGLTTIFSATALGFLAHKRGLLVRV
# Brain [3] = assay: Drug uptake in conscious Sprague-Dawley rat brain region at < 10 nmol/kg, tail-vein injections at 15 mins in presence of 2 mg/kg, ip L-deprenyl inhibitor for 1 hr; type: ADME, organism-based; design: dose 2 mg/kg, route intraperitoneal; settings: in vivo, 0.25 h
# Brain [4] = assay: Drug uptake in conscious Sprague-Dawley rat brain region at < 10 nmol/kg, tail-vein injections at 40 mins; type: ADME, tissue-based; settings: in vivo, iv
# Brain [5] = assay: Drug uptake in conscious Sprague-Dawley rat brain region at < 10 nmol/kg, tail-vein injections at 15 mins; type: ADME, tissue-based; settings: in vivo, iv, 0.25 h
# Cortex [6] = assay: Drug uptake in conscious Sprague-Dawley rat cortex at < 10 nmol/kg, tail-vein injections at 40 mins; type: ADME, tissue-based; settings: in vivo, iv
# Brain [7] = assay: Drug uptake in conscious Sprague-Dawley rat brain region at < 10 nmol/kg, tail-vein injections at 40 mins in presence of 2 mg/kg, ip L-deprenyl inhibitor for 1 hr; type: ADME, organism-based; design: dose 2 mg/kg, route intraperitoneal; settings: in vivo
# Brain [8] = assay: Drug uptake in conscious Sprague-Dawley rat brain region at < 10 nmol/kg, tail-vein injections at 2 mins; type: ADME, tissue-based; settings: in vivo, iv
# Bone [9] = assay: Drug metabolism in conscious Sprague-Dawley rat bone assessed as parent drug level at < 10 nmol/kg, tail-vein injections at 2 mins; type: ADME, tissue-based, Bone element; settings: in vivo, iv
# Striatum [10] = assay: Drug uptake in conscious Sprague-Dawley rat striatum at < 10 nmol/kg, tail-vein injections at 40 mins in presence of 2 mg/kg, ip L-deprenyl inhibitor for 1 hr; type: ADME, organism-based; design: dose 2 mg/kg, route intraperitoneal; settings: in vivo
# Striatum [11] = assay: Drug uptake in conscious Sprague-Dawley rat striatum at < 10 nmol/kg, tail-vein injections at 2 mins; type: ADME, tissue-based; settings: in vivo, iv
# Cortex [12] = assay: Drug uptake in conscious Sprague-Dawley rat cortex at < 10 nmol/kg, tail-vein injections at 2 mins; type: ADME, tissue-based; settings: in vivo, iv
# Striatum [13] = assay: Drug uptake in conscious Sprague-Dawley rat striatum at < 10 nmol/kg, tail-vein injections at 15 mins in presence of 2 mg/kg, ip L-deprenyl inhibitor for 1 hr; type: ADME, organism-based; design: dose 2 mg/kg, route intraperitoneal; settings: in vivo, 0.25 h
# Bone [14] = assay: Drug metabolism in conscious Sprague-Dawley rat bone assessed as parent drug level at < 10 nmol/kg, tail-vein injections at 40 mins; type: ADME, tissue-based, Bone element; settings: in vivo, iv
# Striatum [15] = assay: Drug uptake in conscious Sprague-Dawley rat striatum at < 10 nmol/kg, tail-vein injections at 40 mins; type: ADME, tissue-based; settings: in vivo, iv
# [16] = Plasma concentration in conscious Sprague-Dawley rat plasma assessed as radiotracer at < 10 nmol/kg, tail-vein injections at 2 mins; type: ADME; settings: iv, read-out: Stability
# Cerebellum [17] = assay: Drug uptake in conscious Sprague-Dawley rat cerebellum at < 10 nmol/kg, tail-vein injections at 40 mins; type: ADME, tissue-based; settings: in vivo, iv
# Cortex [18] = assay: Drug uptake in conscious Sprague-Dawley rat cortex at < 10 nmol/kg, tail-vein injections at 40 mins in presence of 2 mg/kg, ip L-deprenyl inhibitor for 1 hr; type: ADME, organism-based; design: dose 2 mg/kg, route intraperitoneal; settings: in vivo
# Cerebellum [19] = assay: Drug uptake in conscious Sprague-Dawley rat cerebellum at < 10 nmol/kg, tail-vein injections at 40 mins in presence of 2 mg/kg, ip L-deprenyl inhibitor for 1 hr; type: ADME, organism-based; design: dose 2 mg/kg, route intraperitoneal; settings: in vivo
# [20] = Plasma concentration in conscious Sprague-Dawley rat plasma assessed as radiotracer at < 10 nmol/kg, tail-vein injections at 40 mins; type: ADME, cell-free; settings: iv, read-out: Stability
# Cortex [21] = assay: Drug uptake in conscious Sprague-Dawley rat cortex at < 10 nmol/kg, tail-vein injections at 15 mins in presence of 2 mg/kg, ip L-deprenyl inhibitor for 1 hr; type: ADME, organism-based; design: dose 2 mg/kg, route intraperitoneal; settings: in vivo, 0.25 h
# Striatum [22] = assay: Drug uptake in conscious Sprague-Dawley rat striatum at < 10 nmol/kg, tail-vein injections at 15 mins; type: ADME, tissue-based; settings: in vivo, iv, 0.25 h
# Cerebellum [23] = assay: Drug uptake in conscious Sprague-Dawley rat cerebellum at < 10 nmol/kg, tail-vein injections at 15 mins in presence of 2 mg/kg, ip L-deprenyl inhibitor for 1 hr; type: ADME, organism-based; design: dose 2 mg/kg, route intraperitoneal; settings: in vivo, 0.25 h
# Cortex [24] = assay: Drug uptake in conscious Sprague-Dawley rat cortex at < 10 nmol/kg, tail-vein injections at 15 mins; type: ADME, tissue-based; settings: in vivo, iv, 0.25 h
# Cerebellum [25] = assay: Drug uptake in conscious Sprague-Dawley rat cerebellum at < 10 nmol/kg, tail-vein injections at 2 mins; type: ADME, tissue-based; settings: in vivo, iv
# Cerebellum [26] = assay: Drug uptake in conscious Sprague-Dawley rat cerebellum at < 10 nmol/kg, tail-vein injections at 15 mins; type: ADME, tissue-based; settings: in vivo, iv, 0.25 h
compound,measurement,setting,value
COC[C@@H]1CN(c2noc3cc(OCCCF)ccc23)C(=O)O1,logD,[1],2.6
same,Ratio IC50,Homo sapiens,6
same,IC50,[2],330 nM
COC[C@@H]1CN(c2noc3cc(OCCCCCF)ccc23)C(=O)O1,Ratio IC50,Homo sapiens,7730
same,IC50,[2],110 nM
COC[C@@H]1CN(c2noc3cc(OCCC[18F])ccc23)C(=O)O1,SUV,Brain [3],0.5
same,SUV,Brain [4],0.19
same,SUV,Brain [5],0.51
same,SUV,Cortex [6],0.19
same,SUV,Brain [7],0.2
same,SUV,Brain [8],1.7
same,SUV,Bone [9],0.45
same,SUV,Striatum [10],0.2
same,SUV,Striatum [11],1.7
same,SUV,Cortex [12],1.7
same,SUV,Striatum [13],0.5
same,SUV,Bone [14],3.1
same,SUV,Striatum [15],0.19
same,remaining at 2 min,[16],90%
same,SUV,Cerebellum [17],0.19
same,SUV,Cortex [18],0.2
same,SUV,Cerebellum [19],0.2
same,remaining at 40 min,[20],33%
same,SUV,Cortex [21],0.5
same,SUV,Striatum [22],0.51
same,SUV,Cerebellum [23],0.5
same,SUV,Cortex [24],0.51
same,SUV,Cerebellum [25],1.7
same,SUV,Cerebellum [26],0.51
COC[C@@H]1CN(c2noc3cc(OCCCCF)ccc23)C(=O)O1,Ratio IC50,Homo sapiens,54
same,IC50,[2],120 nM
COC[C@@H]1CN(c2noc3cc(OCCCC(F)(F)F)ccc23)C(=O)O1,logD,[1],3.34
same,Ratio IC50,Homo sapiens,4680
same,IC50,[2],47 nM
